# According to ChEMBL document CHEMBL1759884, “Synthesis and evaluation of bibenzyl glycosides as potent tyrosinase inhibitors” (Eur J Med Chem, 2011):
# Molecular target: Tyrosinase (Agaricus bisporus)
# Assay: Inhibition of Tyrosinase
row,SMILES,IC50
1,OC[C@H]1O[C@@H](O[C@H]2[C@H](O)[C@@H](O)[C@H](Oc3ccc(CCc4ccc(O)cc4O)c(O)c3)O[C@@H]2CO)[C@H](O)[C@@H](O)[C@@H]1O,680 nM
2,OC[C@H]1O[C@H](O[C@H]2[C@H](O)[C@@H](O)[C@H](Oc3ccc(CCc4ccc(O)cc4O)c(O)c3)O[C@@H]2CO)[C@H](O)[C@@H](O)[C@@H]1O,830 nM
3,Oc1ccc(CCc2ccc(O)cc2O[C@@H]2OC[C@@H](O)[C@H](O)[C@H]2O)c(O)c1,1600 nM

# Other lines, results leading:
row,IC50,SMILES
1,770 nM,OC[C@H]1O[C@@H](Oc2ccc(CCc3ccc(O)cc3O)c(O)c2)[C@H](O)[C@@H](O)[C@@H]1O
2,430 nM,Oc1ccc(CCc2ccc(O[C@@H]3OC[C@@H](O)[C@H](O)[C@H]3O)cc2O)c(O)c1
